Experimental data: patent US11000033B2, “Ketone or oxime compound, and herbicide” (NISSAN CHEMICAL CORPORATION, priority 2014, dated 2021)

Experiments:
Assay type in all cases: in vivo
wheat [1] = assay: Test Example 5: effect on crop by foliage application, plastic box (symbol e); conditions: 320 g/ha, 3 weeks after application
How it was run: (§1)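 Soil: sterilized diluvial. Container: plastic box, 21 × 13 cm, 7 cm deep. Sowing: spot-like, ~1.5 cm cover. Growth: greenhouse, 25° C. to 30° C.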

Alopecurus myosuroides = assay: Test Example 4: herbicidal effect by soil treatment (symbol J); conditions: for J (Alopecurus myosuroides) herbicidal effect grade: application herbicide amount 320 g/ha; for J: Alopecurus myosuroides, herbicidal effect grade: 320 g/ha
How it was run: (§2)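 Seeds were sown in sterilized diluvial soil, covered with about 1.5 cm of soil, and the soil surface was sprayed with a water-diluted emulsion of the compound at a predetermined rate. Plants grew in a greenhouse at 25° C. to 30° C.; effects were scored visually 3 weeks after application.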

Apera spica-venti = assay: Test Example 5: herbicidal effect by foliage application, plastic box (symbol L); conditions: 320 g/ha, 3 weeks after application
How it was run: (§3)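 Greenhouse foliar test: seedlings at 14 days, grown 25° C. to 30° C. in sterilized diluvial soil; compound applied as an aqueous dilution of an emulsion; response read 3 weeks after spraying.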

rapeseed = assay: Test Example 5: effect on crop by foliage application, plastic box (symbol g); conditions: 320 g/ha, 3 weeks after application
How it was run: as §1

Scirpus juncoides = assay: Test Example 1: herbicidal activity, application before weed generation in submerged conditions (symbol B); conditions: application herbicide amount 320 g/ha
How it was run: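 Application before weed emergence: an aqueous dilution of the emulsion formulation was poured onto the surface of 4 cm-deep floodwater on the day of sowing. Effect was judged after 3 weeks (greenhouse, 25–30 °C).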

wheat [2] = assay: Test Example 4: effect on crop by soil treatment (symbol e); conditions: for e (wheat) effect on crop grade: application herbicide amount 320 g/ha; for e: wheat, effect grade on crop: 320 g/ha
How it was run: (§4)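 Plants grew in a 25° C. to 30° C. greenhouse after spot-sowing of seeds, including beet, rapeseed, wheat and rice, into sterilized diluvial soil under roughly 1.5 cm of cover soil.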

[3] = test system: Echinochloa crus-galli var. crus-galli; assay: Test Example 4: herbicidal effect by soil treatment (symbol H); conditions: for H (Echinochloa crus-galli var. crus-galli) herbicidal effect grade: application herbicide amount 320 g/ha; for H: Echinochloa crus-galli var. crus-galli, herbicidal effect grade: 320 g/ha
How it was run: as §2

Setaria viridis = assay: Test Example 4: herbicidal effect by soil treatment (symbol G); conditions: for G (Setaria viridis) herbicidal effect grade: application herbicide amount 320 g/ha; for G: Setaria viridis, herbicidal effect grade: 320 g/ha
How it was run: as §2

corn [4] = assay: Test Example 4: effect on crop by soil treatment (symbol c); conditions: for c (corn) effect on crop grade: application herbicide amount 320 g/ha; for c: corn, effect grade on crop: 320 g/ha
How it was run: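 Soil-treatment setup: crop and weed seeds were spot-sown into sterilized diluvial soil, then buried beneath approximately 1.5 cm of it, and the boxes were housed in a 25–30° C. greenhouse.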

Stellaria media = assay: Test Example 4: herbicidal effect by soil treatment (symbol P); conditions: for P (Stellaria media) herbicidal effect grade: application herbicide amount 320 g/ha; for P: Stellaria media, herbicidal effect grade: 320 g/ha
How it was run: as §2

rice = assay: Test Example 4: effect on crop by soil treatment (symbol b); conditions: for b (directly sowed rice plant) effect on crop grade: application herbicide amount 320 g/ha; for b: directly sowed rice plant, effect grade on crop: 320 g/ha
How it was run: as §4

Lolium multiflorum Lam. = assay: Test Example 4: herbicidal effect by soil treatment (symbol K); conditions: for K (Lolium multiflorum Lam.) herbicidal effect grade: application herbicide amount 320 g/ha; for K: Lolium multiflorum Lam., herbicidal effect grade: 320 g/ha
How it was run: as §2

Veronica persica = assay: Test Example 5: herbicidal effect by foliage application, plastic box (symbol R); conditions: 320 g/ha, 3 weeks after application
How it was run: as §3

soybean = assay: Test Example 5: effect on crop by foliage application, plastic box (symbol d); conditions: 320 g/ha, 3 weeks after application
How it was run: as §1

corn [5] = assay: Test Example 5: effect on crop by foliage application, plastic box (symbol c); conditions: 320 g/ha, 3 weeks after application
How it was run: as §1

Digitaria ciliaris = assay: Test Example 5: herbicidal effect by foliage application, plastic box (symbol F); conditions: 320 g/ha, 3 weeks after application
How it was run: as §3

[6] = test system: Echinochloa crus-galli var. crus-galli; assay: Test Example 3: herbicidal effect by foliage application, Wagner pot (symbol H); conditions: application herbicide amount 320 g/ha
How it was run: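 Herbicidal activity was rated three weeks after a foliar spray of diluted emulsion concentrate, applied at a predetermined dose to plants grown for 14 days from seed in waterlogged alluvial soil within a 25–30 °C greenhouse.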

Compound | e: wheat, effect on crop grade (wheat [1]) | J (Alopecurus myosuroides) herbicidal effect grade (Alopecurus myosuroides) | L: Apera spica-venti, herbicidal effect grade (Apera spica-venti) | g: rapeseed, effect on crop grade (rapeseed) | Herbicidal effect grade, B: Scirpus juncoides (Scirpus juncoides) | e (wheat) effect on crop grade (wheat [2]) | H (Echinochloa crus-galli var. crus-galli) herbicidal effect grade [3] | G (Setaria viridis) herbicidal effect grade (Setaria viridis) | c (corn) effect on crop grade (corn [4]) | P (Stellaria media) herbicidal effect grade (Stellaria media) | b (directly sowed rice plant) effect on crop grade (rice) | K (Lolium multiflorum Lam.) herbicidal effect grade (Lolium multiflorum Lam.) | R: Veronica persica, herbicidal effect grade (Veronica persica) | d: soybean, effect on crop grade (soybean) | c: corn, effect on crop grade (corn [5]) | F: Digitaria ciliaris, herbicidal effect grade (Digitaria ciliaris) | herbicidal effect on H (Echinochloa crus-galli var. crus-galli), grade 0-5 [6] | e: wheat, effect on crop (criteria 0-5) (wheat [1]) | J: Alopecurus myosuroides, herbicidal effect grade (Alopecurus myosuroides) | L: Apera spica-venti, herbicidal effect (criteria 0-5) (Apera spica-venti) | also measured
CON=C(C)CC1CC(OC(=O)C(C)(C)Oc2ccccc2Cl)=C(c2c(C)cc(C)cc2C)C1=O (centres unmarked) [1-064] | 5 (Herbicidal ratio of 90% or more (almost completely withered)) | 5 (Herbicidal ratio of 90% or more (almost completely withered)) | 5 (Herbicidal ratio of 90% or more (almost completely withered)) | 4 (Herbicidal ratio of 70% or higher and lower than 90%) | 5 (Herbicidal ratio of 90% or more (almost completely withered)) | 3 (Herbicidal ratio of 40% or higher and lower than 70%) | 5 (Herbicidal ratio of 90% or more (almost completely withered)) | 5 (Herbicidal ratio of 90% or more (almost completely withered)) | 5 (Herbicidal ratio of 90% or more (almost completely withered)) | 0 (Herbicidal ratio of 5% or lower (almost no effect)) | 5 (Herbicidal ratio of 90% or more (almost completely withered)) | 5 (Herbicidal ratio of 90% or more (almost completely withered)) | 3 (Herbicidal ratio of 40% or higher and lower than 70%) | 4 (Herbicidal ratio of 70% or higher and lower than 90%) | 5 (Herbicidal ratio of 90% or more (almost completely withered)) | 5 (Herbicidal ratio of 90% or more (almost completely withered)) | 5 (Herbicidal ratio of 90% or more (almost completely withered)) | – | – | – | –
C=CC(CC1CC(O)=C(c2c(C)cc(C)cc2C)C1=O)=NOC (centres unmarked) [1-086] | – | – | – | – | 0 (Herbicidal ratio of 5% or lower (almost no effect)) | – | – | – | – | – | – | – | – | – | – | – | 5 (Herbicidal ratio of 90% or more (almost completely withered)) | 0 (Herbicidal ratio of 5% or lower (almost no effect)) | 3 (Herbicidal ratio of 40% or higher and lower than 70%) | 4 (Herbicidal ratio of 70% or higher and lower than 90%) | g: rapeseed, effect on crop (criteria 0-5) (rapeseed): 3 (Herbicidal ratio of 40% or higher and lower than 70%); e: wheat, effect grade on crop (wheat [2]): 0 (Herbicidal ratio of 5% or lower (almost no effect)); H: Echinochloa crus-galli var. crus-galli, herbicidal effect grade [3]: 1 (Herbicidal ratio of 5% or higher and lower than 20%); G: Setaria viridis, herbicidal effect grade (Setaria viridis): 4 (Herbicidal ratio of 70% or higher and lower than 90%); c: corn, effect grade on crop (corn [4]): 1 (Herbicidal ratio of 5% or higher and lower than 20%); P: Stellaria media, herbicidal effect grade (Stellaria media): 0 (Herbicidal ratio of 5% or lower (almost no effect)); b: directly sowed rice plant, effect grade on crop (rice): 5 (Herbicidal ratio of 90% or more (almost completely withered)); K: Lolium multiflorum Lam., herbicidal effect grade (Lolium multiflorum Lam.): 5 (Herbicidal ratio of 90% or more (almost completely withered)); R: Veronica persica, herbicidal effect (criteria 0-5) (Veronica persica): 2 (Herbicidal ratio of 20% or higher and lower than 40%); d: soybean, effect on crop (criteria 0-5) (soybean): 0 (Herbicidal ratio of 5% or lower (almost no effect)); c: corn, effect on crop (criteria 0-5) (corn [5]): 3 (Herbicidal ratio of 40% or higher and lower than 70%); F: Digitaria ciliaris, herbicidal effect (criteria 0-5) (Digitaria ciliaris): 0 (Herbicidal ratio of 5% or lower (almost no effect))
CON=C(C)CC1CC(OC(=O)COCc2ccccc2)=C(c2c(C)cc(C)cc2C)C1=O (centres unmarked) [1-094] | – | – | – | – | 5 (Herbicidal ratio of 90% or more (almost completely withered)) | – | – | – | – | – | – | – | – | – | – | – | 5 (Herbicidal ratio of 90% or more (almost completely withered)) | 5 (Herbicidal ratio of 90% or more (almost completely withered)) | 5 (Herbicidal ratio of 90% or more (almost completely withered)) | 5 (Herbicidal ratio of 90% or more (almost completely withered)) | g: rapeseed, effect on crop (criteria 0-5) (rapeseed): 4 (Herbicidal ratio of 70% or higher and lower than 90%); e: wheat, effect grade on crop (wheat [2]): 3 (Herbicidal ratio of 40% or higher and lower than 70%); H: Echinochloa crus-galli var. crus-galli, herbicidal effect grade [3]: 5 (Herbicidal ratio of 90% or more (almost completely withered)); G: Setaria viridis, herbicidal effect grade (Setaria viridis): 5 (Herbicidal ratio of 90% or more (almost completely withered)); c: corn, effect grade on crop (corn [4]): 4 (Herbicidal ratio of 70% or higher and lower than 90%); P: Stellaria media, herbicidal effect grade (Stellaria media): 0 (Herbicidal ratio of 5% or lower (almost no effect)); b: directly sowed rice plant, effect grade on crop (rice): 5 (Herbicidal ratio of 90% or more (almost completely withered)); K: Lolium multiflorum Lam., herbicidal effect grade (Lolium multiflorum Lam.): 5 (Herbicidal ratio of 90% or more (almost completely withered)); R: Veronica persica, herbicidal effect (criteria 0-5) (Veronica persica): 3 (Herbicidal ratio of 40% or higher and lower than 70%); d: soybean, effect on crop (criteria 0-5) (soybean): 2 (Herbicidal ratio of 20% or higher and lower than 40%); c: corn, effect on crop (criteria 0-5) (corn [5]): 5 (Herbicidal ratio of 90% or more (almost completely withered)); F: Digitaria ciliaris, herbicidal effect (criteria 0-5) (Digitaria ciliaris): 5 (Herbicidal ratio of 90% or more (almost completely withered))
CON=CCC1CC(O)=C(c2c(C)cc(C)cc2C)C1=O (centres unmarked) [1-050] | 0 (Herbicidal ratio of 5% or lower (almost no effect)) | 0 (Herbicidal ratio of 5% or lower (almost no effect)) | 3 (Herbicidal ratio of 40% or higher and lower than 70%) | 4 (Herbicidal ratio of 70% or higher and lower than 90%) | 2 (Herbicidal ratio of 20% or higher and lower than 40%) | 0 (Herbicidal ratio of 5% or lower (almost no effect)) | 4 (Herbicidal ratio of 70% or higher and lower than 90%) | 4 (Herbicidal ratio of 70% or higher and lower than 90%) | 0 (Herbicidal ratio of 5% or lower (almost no effect)) | 0 (Herbicidal ratio of 5% or lower (almost no effect)) | 5 (Herbicidal ratio of 90% or more (almost completely withered)) | 4 (Herbicidal ratio of 70% or higher and lower than 90%) | 0 (Herbicidal ratio of 5% or lower (almost no effect)) | 0 (Herbicidal ratio of 5% or lower (almost no effect)) | 0 (Herbicidal ratio of 5% or lower (almost no effect)) | 3 (Herbicidal ratio of 40% or higher and lower than 70%) | 5 (Herbicidal ratio of 90% or more (almost completely withered)) | – | – | – | –
